Test results reported in patent US11123272B2, “Cosmetic blends” (Symrise AG, priority 2016, dated 2021).

target: T1, human TREK-1 receptor (Homo sapiens, UniProt O95069); assay: TREK receptor screening: TREK-1 mediated currents by manual patch clamp in transfected frog oocytes; assay type: cell-based; details: at 1 mMol; None = 1.000
T1 construct: expressed in transfected cells
T1 sequence (O95069 1-426): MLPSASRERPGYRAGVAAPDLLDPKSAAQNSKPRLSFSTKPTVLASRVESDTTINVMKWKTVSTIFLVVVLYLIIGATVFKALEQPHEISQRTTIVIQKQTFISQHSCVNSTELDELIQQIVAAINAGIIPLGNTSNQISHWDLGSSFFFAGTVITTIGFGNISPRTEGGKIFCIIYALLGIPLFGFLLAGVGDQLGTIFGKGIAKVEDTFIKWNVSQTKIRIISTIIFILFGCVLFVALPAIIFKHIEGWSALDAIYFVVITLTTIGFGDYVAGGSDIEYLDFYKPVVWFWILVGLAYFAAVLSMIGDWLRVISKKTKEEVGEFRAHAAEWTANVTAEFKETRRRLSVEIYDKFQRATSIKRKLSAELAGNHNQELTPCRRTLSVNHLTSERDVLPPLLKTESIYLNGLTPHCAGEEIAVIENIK
From the text: The human TREK-1 receptor is a temperature sensitive, mechano-gated potassium channels, present in human skin and neuronal cells. It is known to be involved in the signaling of temperature sensation. Here it cooperates with other ion channels in the relevant cell types.
To screen for TREK-1 receptor channel blockers, frog oocyte were transfected to transiently overexpress the human TREK-1 receptor. A substance database was screened on the cells. Read out was TREK-1medited currents, detected by manual patch clamp.

Blockade of TREK-1 receptor, F.I. | SMILES
0.773 | CCCCCCCCC(O)CO (centres unmarked) [1,2-Decandiol]
0.733 | CCCCCCCCCCC(O)CO (centres unmarked) [1,2-Dodecandiol]
0.942 | CCCCC(O)CO (centres unmarked) [1,2-Hexandiol]
0.855 | CCCCCCC(O)CO (centres unmarked) [1,2-Octandiol]

SMILES | Blockade of TREK-1 receptor, F.I.
CNCCC(Oc1ccc(C(F)(F)F)cc1)c1ccccc1 (centres unmarked) [Fluoxetine, reference compound] | 0.679
